One assay concerns KB. Nature of the assay: Cytotoxicity against human KB cells by colorimetric assay. The assay is classed as functional, cell-based.
Assay [1] is described as follows: Inhibition of FTase by fluorimetry.

From ChEMBL document CHEMBL1154558, “Cytotoxic prenylxanthones from Garcinia bracteata” (J Nat Prod, 2000) come the findings set out here.

Values after ≈ are worked out from the molar mass of the structure shown.

As to `C=CC(C)(C)c1c(O)cc(OC)c2c1O[C@]13[C@@H](C2=O)[C@H](OC)[C@@H]2C[C@H]1C(C)(C)O[C@@]3(CC=C(C)C)C2=O`, in the assay with KB, the midpoint of inhibition, the IC50, lay at 1.5 µg/mL (≈ 2.94 µM). In assay [1], this compound displayed an Activity above 10 µg/mL.

`CC(C)=CC[C@]12OC(C)(C)[C@@H]3C[C@@H](C=C4C(=O)c5c(O)cc6c(c5O[C@]431)C(C)(C)[C@H](C)O6)C2=O` [ISOBRACTATIN] came in with a concentration for half-maximal inhibition (IC50) with KB of 1.5 µg/mL (≈ 3.23 µM). The compound further returned an Activity in assay [1] of 5.6 µg/mL.

Consider `C=CC(C)(C)c1c(O)cc(OC)c2c1O[C@]13C(=C[C@@H]4C[C@H]1C(C)(C)O[C@@]3(CC=C(C)C)C4=O)C2=O`, for which the midpoint of inhibition in the assay with KB, the IC50, lay at 0.3 µg/mL (≈ 0.627 µM). The same compound gave an Activity in assay [1] above 10 µg/mL. In turn, `CC(C)=CC[C@@]12OC(C)(C)[C@@H]3C[C@@H](C=C4C(=O)c5c(O)cc(O)cc5O[C@]431)C2=O` returned an IC50 with KB of 0.8 µg/mL (≈ 2.02 µM). As to `C=CC(C)(C)c1c(O)cc(O)c2c1O[C@]13C(=C[C@@H]4C[C@H]1C(C)(C)O[C@@]3(CC=C(C)C)C4=O)C2=O` [BRACTATIN], half-maximal inhibition in the assay with KB (IC50) was put at 0.4 µg/mL (≈ 0.861 µM). In assay [1], the Activity is 4.7 µg/mL. Compound `COc1cc2c(c3c1C(=O)C1=C[C@@H]4C[C@H]5C(C)(C)O[C@](CC=C(C)C)(C4=O)[C@@]15O3)C(C)(C)[C@H](C)O2` returned a half-maximal inhibitory concentration (IC50) in the assay with KB of 0.8 µg/mL (≈ 1.67 µM). The Activity in assay [1] was above 10 µg/mL.

Regarding `C=CC(C)(C)c1c(O)cc(OC)c2c1O[C@@]13C[C@H]4[C@@H](C=C1C2=O)[C@](CC=C(C)C)(OC4(C)C)C3=O`, 0.2 µg/mL (≈ 0.418 µM) corresponded to half-maximal inhibition in the assay with KB (IC50).
